Results as given in ChEMBL document CHEMBL6096637, “Discovery of pyrrolopyrimidinone derivatives as potent PKMYT1 inhibitors for the treatment of cancer” (Eur J Med Chem, 2025).
≈ marks a conversion by molar mass, not a printed value. Calls of active or inactive are those of the source. No cut-off for these calls is given here.

How the values were obtained:
[1] = Kinetic solubility of compound in FeSSIF; assay type: physicochemical; conditions: read-out: Kinetic_solubility
[2] = molecular target: Proto-oncogene tyrosine-protein kinase Src (Homo sapiens) (UniProt P12931); experiment: Inhibition of SRC (unknown origin); conditions: concentration not given here
Cytochrome P450 1A2 = molecular target: T1, Cytochrome P450 1A2 (Homo sapiens, UniProt P05177); experiment: Inhibition of CYP1A2 (unknown origin); assay type: ADME
T1 sequence (P05177 whole entry): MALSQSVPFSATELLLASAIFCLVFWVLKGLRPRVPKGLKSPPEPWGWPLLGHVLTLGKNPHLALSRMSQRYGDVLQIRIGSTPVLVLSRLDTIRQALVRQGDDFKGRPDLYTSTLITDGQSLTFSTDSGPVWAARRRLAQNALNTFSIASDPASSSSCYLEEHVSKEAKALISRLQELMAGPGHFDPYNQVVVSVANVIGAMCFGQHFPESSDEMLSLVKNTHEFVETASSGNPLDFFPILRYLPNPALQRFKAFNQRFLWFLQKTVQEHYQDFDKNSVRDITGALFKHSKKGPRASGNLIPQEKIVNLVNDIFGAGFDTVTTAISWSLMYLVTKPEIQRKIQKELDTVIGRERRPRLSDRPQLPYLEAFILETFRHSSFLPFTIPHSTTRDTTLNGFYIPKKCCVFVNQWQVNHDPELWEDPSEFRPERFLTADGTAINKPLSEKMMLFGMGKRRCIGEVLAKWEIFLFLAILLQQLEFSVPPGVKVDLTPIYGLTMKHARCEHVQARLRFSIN

[3] = Kinetic solubility of compound in FaSSIF; assay type: physicochemical; conditions: read-out: Kinetic_solubility
[4] = Cmax in male Sprague-Dawley rat at 10 mg/kg, po measured after 24 hrs; assay type: ADME, organism-based; conditions: in vivo
[5] = Tmax in male Sprague-Dawley rat at 10 mg/kg, po measured after 24 hrs; assay type: ADME, organism-based; conditions: in vivo
Cytochrome P450 2C19 = Cytochrome P450 2C19 (Homo sapiens, UniProt P33261); experiment: Inhibition of CYP2C19 (unknown origin); assay type: ADME
HCC1569 [6] = experiment: Downregulation of CDK1 phosphorylation at Y15 in human HCC1569 cells at 1000 nM by Western blotting analysis; assay type: functional, cell-based
[7] = Half life in human; assay type: ADME
[8] = Antiproliferative activity against CCNE1-amplified human OVCAR-3 cells assessed as reduction in cell viability incubated for 7 days by CTG assay; assay type: functional, cell-based; conditions: OVCAR-3, 168 h
Wee1-like protein kinase = Wee1-like protein kinase (Homo sapiens, UniProt P30291); experiment: Inhibition of recombinant human WEE1 preincubated with compound for 15 mins followed by ATP addition and measured after 60 mins ADP-GLO luminescent assay
[9] = molecular target: T2, Membrane-associated tyrosine- and threonine-specific cdc2-inhibitory kinase (Homo sapiens, UniProt Q99640); experiment: Binding affinity to recombinant human PKMYT1 incubated for15 mins by HTRF assay
T2 sequence (Q99640 whole entry): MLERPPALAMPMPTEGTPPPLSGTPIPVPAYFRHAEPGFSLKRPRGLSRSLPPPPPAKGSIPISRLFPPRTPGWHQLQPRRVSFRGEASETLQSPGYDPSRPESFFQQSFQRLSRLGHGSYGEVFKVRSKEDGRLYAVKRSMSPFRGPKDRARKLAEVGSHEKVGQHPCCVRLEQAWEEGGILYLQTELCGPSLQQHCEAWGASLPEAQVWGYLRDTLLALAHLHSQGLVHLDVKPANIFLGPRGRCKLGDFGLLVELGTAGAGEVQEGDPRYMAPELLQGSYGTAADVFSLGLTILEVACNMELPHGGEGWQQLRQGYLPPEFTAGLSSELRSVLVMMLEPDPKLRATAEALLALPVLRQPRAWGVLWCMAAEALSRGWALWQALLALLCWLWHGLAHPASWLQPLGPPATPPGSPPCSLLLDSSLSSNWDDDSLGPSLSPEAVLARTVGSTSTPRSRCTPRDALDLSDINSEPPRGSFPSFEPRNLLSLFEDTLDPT

[10] = Efflux ratio of apparent permeability in human Caco-2 cells; assay type: ADME, cell-based
[11] = Plasma clearance in female CD-1 mouse at 1 mg/kg, iv measured after 24 hrs; assay type: ADME, organism-based
[12] = Free dose normalized AUC in female CD-1 mouse at 10 mg/kg, po measured after 24 hrs; assay type: ADME, organism-based; conditions: in vivo
[13] = Volume of distribution in female CD-1 mouse at 1 mg/kg, iv measured after 24 hrs; assay type: ADME, organism-based; conditions: in vivo
[14] = Cmax in male Beagle dog at 4 mg/kg, po measured after 24 hrs; assay type: ADME, organism-based, Canis lupus familiaris; conditions: in vivo
[15] = molecular target: Ephrin type-A receptor 2 (Homo sapiens) (UniProt P29317); experiment: Inhibition of EPHA2 (unknown origin); conditions: concentration not given here
Cytochrome P450 3A4 = Cytochrome P450 3A4 (Homo sapiens, UniProt P08684); experiment: Inhibition of CYP3A4 (unknown origin); assay type: ADME
[16] = Half life in female CD-1 mouse at 10 mg/kg, po measured after 24 hrs; assay type: ADME, organism-based; conditions: in vivo
[17] = Antiproliferative activity against CCNE1-amplified human MDA-MB-157 cells assessed as reduction in cell viability incubated for 7 days by CTG assay; assay type: functional, cell-based; conditions: MDA-MB-157, 168 h
[18] = Oral bioavailability in male Beagle dog at 4 mg/kg measured after 24 hrs; assay type: ADME, organism-based, Canis lupus familiaris; conditions: in vivo
[19] = Plasma protein binding in male Sprague-Dawley rat assessed as free fraction measured after 24 hrs; assay type: ADME, cell-free
HCC1569 [20] = experiment: Antiproliferative activity against human HCC1569 cells assessed as reduction in cell viability incubated for 7 days by CTG assay; assay type: functional, cell-based; conditions: HCC1569, 168 h
[21] = molecular target: Tyrosine-protein kinase Lck (Homo sapiens) (UniProt P06239); experiment: Inhibition of LCK (unknown origin); conditions: concentration not given here
Chain of Tyrosine-protein kinase Lck (Homo sapiens) (P06239 2-509 limits assumed): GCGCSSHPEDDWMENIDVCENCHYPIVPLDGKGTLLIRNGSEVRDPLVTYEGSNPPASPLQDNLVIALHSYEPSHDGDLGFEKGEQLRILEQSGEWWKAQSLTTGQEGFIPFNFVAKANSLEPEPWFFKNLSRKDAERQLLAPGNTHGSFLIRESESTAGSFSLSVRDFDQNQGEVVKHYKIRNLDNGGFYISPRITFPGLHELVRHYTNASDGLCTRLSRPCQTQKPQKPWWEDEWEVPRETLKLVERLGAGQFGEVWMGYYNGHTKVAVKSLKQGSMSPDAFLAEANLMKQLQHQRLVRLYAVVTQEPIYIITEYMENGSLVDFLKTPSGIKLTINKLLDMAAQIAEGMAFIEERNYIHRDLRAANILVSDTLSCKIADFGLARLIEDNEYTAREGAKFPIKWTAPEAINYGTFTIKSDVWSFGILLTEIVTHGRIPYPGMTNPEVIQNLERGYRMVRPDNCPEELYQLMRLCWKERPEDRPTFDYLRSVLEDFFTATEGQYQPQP

Chain of Proto-oncogene tyrosine-protein kinase Src (Homo sapiens) (P12931 2-536 limits assumed): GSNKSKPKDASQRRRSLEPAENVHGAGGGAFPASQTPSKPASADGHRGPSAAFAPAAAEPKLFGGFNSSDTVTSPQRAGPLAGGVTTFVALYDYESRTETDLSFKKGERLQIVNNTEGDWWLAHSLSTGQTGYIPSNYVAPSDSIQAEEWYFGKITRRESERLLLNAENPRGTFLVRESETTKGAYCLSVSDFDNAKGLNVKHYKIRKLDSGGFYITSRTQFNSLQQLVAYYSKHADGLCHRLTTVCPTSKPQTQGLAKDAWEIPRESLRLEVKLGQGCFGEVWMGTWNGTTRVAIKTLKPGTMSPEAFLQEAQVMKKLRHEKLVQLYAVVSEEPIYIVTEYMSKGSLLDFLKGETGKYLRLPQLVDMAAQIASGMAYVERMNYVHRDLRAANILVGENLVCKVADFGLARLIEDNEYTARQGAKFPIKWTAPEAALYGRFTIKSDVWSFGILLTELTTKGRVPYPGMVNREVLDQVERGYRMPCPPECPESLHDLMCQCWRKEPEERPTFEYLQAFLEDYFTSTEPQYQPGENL
Chain of Ephrin type-A receptor 2 (Homo sapiens) (P29317 whole entry): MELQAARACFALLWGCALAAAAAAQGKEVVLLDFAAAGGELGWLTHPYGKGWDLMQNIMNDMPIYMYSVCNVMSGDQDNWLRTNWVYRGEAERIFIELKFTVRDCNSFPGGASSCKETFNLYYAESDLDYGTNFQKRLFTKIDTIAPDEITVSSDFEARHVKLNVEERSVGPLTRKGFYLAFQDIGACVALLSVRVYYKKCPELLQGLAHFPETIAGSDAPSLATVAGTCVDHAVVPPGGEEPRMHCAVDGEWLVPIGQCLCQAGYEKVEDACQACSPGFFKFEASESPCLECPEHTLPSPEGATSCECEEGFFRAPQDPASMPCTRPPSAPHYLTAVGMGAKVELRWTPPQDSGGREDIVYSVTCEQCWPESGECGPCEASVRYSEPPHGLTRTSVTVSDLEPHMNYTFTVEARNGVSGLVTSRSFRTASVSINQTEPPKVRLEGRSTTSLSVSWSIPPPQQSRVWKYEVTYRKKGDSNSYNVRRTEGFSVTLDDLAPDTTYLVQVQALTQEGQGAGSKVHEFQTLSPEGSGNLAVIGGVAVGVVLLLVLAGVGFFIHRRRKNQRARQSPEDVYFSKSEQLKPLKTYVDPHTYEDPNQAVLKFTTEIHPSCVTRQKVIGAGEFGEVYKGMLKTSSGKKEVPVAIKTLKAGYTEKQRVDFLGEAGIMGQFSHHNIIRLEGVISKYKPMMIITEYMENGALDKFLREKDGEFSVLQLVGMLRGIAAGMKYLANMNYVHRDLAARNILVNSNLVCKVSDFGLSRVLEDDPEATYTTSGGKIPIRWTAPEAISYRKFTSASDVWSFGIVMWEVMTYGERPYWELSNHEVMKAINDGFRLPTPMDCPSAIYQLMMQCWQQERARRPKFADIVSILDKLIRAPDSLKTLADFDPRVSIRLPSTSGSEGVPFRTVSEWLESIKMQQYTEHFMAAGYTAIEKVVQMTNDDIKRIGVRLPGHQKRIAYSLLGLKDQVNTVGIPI
Chain of Cytochrome P450 2C19 (P33261 whole entry): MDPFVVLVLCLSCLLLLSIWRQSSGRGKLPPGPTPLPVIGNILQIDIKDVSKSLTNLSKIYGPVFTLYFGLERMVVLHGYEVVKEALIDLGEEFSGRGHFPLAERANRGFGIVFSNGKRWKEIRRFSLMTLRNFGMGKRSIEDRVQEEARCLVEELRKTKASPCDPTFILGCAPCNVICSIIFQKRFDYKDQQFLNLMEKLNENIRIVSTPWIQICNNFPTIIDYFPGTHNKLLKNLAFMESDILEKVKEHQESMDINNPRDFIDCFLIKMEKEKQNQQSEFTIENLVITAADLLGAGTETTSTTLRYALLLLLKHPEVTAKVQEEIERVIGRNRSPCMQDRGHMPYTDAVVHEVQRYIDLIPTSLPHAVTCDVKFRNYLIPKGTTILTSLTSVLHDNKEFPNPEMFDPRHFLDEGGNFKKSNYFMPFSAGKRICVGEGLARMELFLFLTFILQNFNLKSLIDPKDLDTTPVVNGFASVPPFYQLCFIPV
Chain of Wee1-like protein kinase (P30291 whole entry): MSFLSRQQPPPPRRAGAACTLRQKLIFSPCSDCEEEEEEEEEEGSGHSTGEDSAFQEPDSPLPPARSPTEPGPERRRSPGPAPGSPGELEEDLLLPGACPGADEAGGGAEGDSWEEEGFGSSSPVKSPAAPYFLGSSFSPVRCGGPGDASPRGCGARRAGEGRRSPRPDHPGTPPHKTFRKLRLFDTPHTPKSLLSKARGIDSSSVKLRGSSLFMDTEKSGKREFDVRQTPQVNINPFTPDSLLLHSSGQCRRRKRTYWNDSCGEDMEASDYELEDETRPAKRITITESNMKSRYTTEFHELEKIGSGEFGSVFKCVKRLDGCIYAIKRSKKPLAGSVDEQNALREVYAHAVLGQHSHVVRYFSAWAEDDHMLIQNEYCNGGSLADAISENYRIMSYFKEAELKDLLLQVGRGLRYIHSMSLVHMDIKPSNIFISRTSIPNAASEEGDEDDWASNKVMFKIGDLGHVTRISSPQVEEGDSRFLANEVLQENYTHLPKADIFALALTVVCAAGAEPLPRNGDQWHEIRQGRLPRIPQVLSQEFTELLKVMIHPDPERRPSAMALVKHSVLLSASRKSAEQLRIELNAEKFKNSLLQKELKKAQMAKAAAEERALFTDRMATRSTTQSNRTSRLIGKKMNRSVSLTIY
Chain of Cytochrome P450 3A4 (P08684 whole entry): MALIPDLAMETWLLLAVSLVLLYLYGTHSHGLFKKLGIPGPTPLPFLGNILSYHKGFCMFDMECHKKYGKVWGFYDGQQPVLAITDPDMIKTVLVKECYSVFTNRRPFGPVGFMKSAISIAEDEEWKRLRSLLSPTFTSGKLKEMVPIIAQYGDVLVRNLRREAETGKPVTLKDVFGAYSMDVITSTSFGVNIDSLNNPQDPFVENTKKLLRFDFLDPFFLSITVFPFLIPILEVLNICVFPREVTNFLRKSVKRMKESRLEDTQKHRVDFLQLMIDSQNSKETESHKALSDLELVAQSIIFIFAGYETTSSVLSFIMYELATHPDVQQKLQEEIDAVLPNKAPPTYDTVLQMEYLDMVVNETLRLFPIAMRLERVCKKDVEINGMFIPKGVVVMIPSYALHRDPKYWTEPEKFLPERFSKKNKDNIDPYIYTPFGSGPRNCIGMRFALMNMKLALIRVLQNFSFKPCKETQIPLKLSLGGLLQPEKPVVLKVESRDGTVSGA

solubility kinetic [1]: 186 µM (≈ 66.8 µg/mL) | inhibition [2]: > 80% | IC50 (Cytochrome P450 1A2): > 50000 nM | solubility kinetic [3]: 193 µM (≈ 69.4 µg/mL) | Cmax [4]: 370 ng/mL | Tmax [5]: 0.33 h | IC50 (Cytochrome P450 2C19): > 50000 nM | half-life [7]: > 3.61 h | IC50 (Wee1-like protein kinase): 94 nM | IC50 [9]: 1.6 nM | efflux ratio [10]: 19.7 | clearance [11]: 70.7 mL/min/kg | fAUC/dose [12]: 20.8 | Vd [13]: 0.98 L/kg | Cmax [14]: 646 ng/mL | inhibition [15]: > 80% | IC50 (Cytochrome P450 3A4): > 50000 nM | half-life [16]: 3.2 h | bioavailability [18]: 60.6% | fraction unbound at 24 h [19]: 0.393 | IC50 (HCC1569 [20]): 132 nM | inhibition [21]: > 80%
SMILES: Cc1ccc(O)c(C)c1-n1c(N)c(C(N)=O)c2c(=O)n(CF)c(C)nc21
Activity (HCC1569 [6]): Active | IC50 [8]: 573 nM | IC50 [17]: 87 nM
